# Measurements reported in patent publication US7271161B2, “Platinum complexes as antitumor agents in combination with biochemical modulation” (Board of Regents, the University of Texas System, priority 2002, dated 2007).
# Like-named read-outs stand apart in the source and are kept apart here.
# Legend:
# [1] = tested on: Human A2780 cell line; experiment: MTT cytotoxicity assay, cisplatin-sensitive ovarian A2780 cells, with or without BSO; type: cell-based; set-up: key to DMF vs. A2780 Control (Without BSO): DMF = IC50 without BSO / IC50 with BSO; conditions: for DMF vs. A2780 +10 μM BSO (MTC): IC50 without BSO / IC50 with 10 μM BSO (MTC); for DMF vs. A2780 Control (Without BSO): without BSO (reference)
# Excerpt: (§1) The ovarian A2780 and 2008 cell lines are sensitive to cisplatin, while the corresponding 2780CP and 2008/C13* cell lines were selected for resistance following in vitro exposure to cisplatin. The SKOV-3 cell line was established from a patient who was resistant to cisplatin therapy and is considered a model of cisplatin resistance. The A2780 and 2780CP cells have wild-type p53 function, while SKOV-3 is devoid of p53 function. The p53 status for the 2008 and 2008/C131 cells is presently not known.
# (§2) Procedure for Cytotoxic Evaluation. All cell lines are maintained in RPMI 1640 medium supplemented with 10% fetal bovine serum, 50 μg/ml penicillin, 50 μg/ml streptomycin, 100 μg/ml neomycin and 0.3 mg/ml L-glutamine. The ovarian lines also require 2 μg/ml insulin for maximal growth. Cells are grown as monolayers at 37° C. in a humidified atmosphere of 5% CO2:95% air. Cytotoxicity is determined by a standard MTT assay. Briefly, the exponentially-growing cells are trypsinized to dislodge them before use. After diluting the tumor cells to appropriate concentrations (2,000-30,000 cells/ml), 100 μl aliquots of the cell suspensions are added to each well of a 96-well microtiter plate. The cells are allowed to attach overnight, and then exposed for 24 hr to BSO at a concentration that is equal to or less than maximally tolerated concentration (MTC). At 22 hr after addition of BSO, the platinum complex is added, and 2 hr later the cells are washed and reincubated. After another 5 days, when control cells are in an exponential phase of growth, 50 μl of an MTT solution (3 mg/ml) is added to each well. Following a 3-hr incubation, the medium is removed and replaced by 50 μl of 100% DMSO to dissolve MTT formazan crystals. Plates are agitated on a plate shaker for 5 min, and absorbances are measured at 570 nm in a multiwell scanning spectrophotometer.
# (§3) IC50 values, defined as the drug concentration (μM) inhibiting cell growth by 50% compared to control wells, are determined by fitting a sigmoidal curve to the data using a computer program. Resistance factor is calculated as a ratio of the IC50 against resistant cell line to the IC50 against parent cell line. The dose modification factor (DMF) is derived from a ratio of IC50 without BSO to that with BSO.
# [2] = tested on: Human 2780CP cell line; experiment: MTT cytotoxicity assay, cisplatin-resistant ovarian 2780CP cells, with or without BSO; type: cell-based; set-up: key to DMF vs. 2780CP Control (Without BSO) / DMF Control / DMF +BSO (MTC): DMF = IC50 without BSO / IC50 with BSO; conditions: for DMF vs. 2780CP +10 μM BSO: IC50 without BSO / IC50 with 10 μM BSO; for DMF vs. 2780CP +3 mM BSO (MTC): IC50 without BSO / IC50 with 3 mM BSO (MTC); for DMF vs. 2780CP Control (Without BSO): without BSO (reference)
# Excerpt: as §1, §2, §3
# [3] = tested on: SKOV-3 cell line; experiment: MTT cytotoxicity assay, cisplatin-resistant SKOV-3 cells, with or without BSO; type: cell-based, Human; conditions: SKOV-3; for IC50: Table 4; for DMF +BSO (MTC) / DMF Control: Table 5; for DMF Control: absence of BSO (reference)
# Excerpt: as §1, §2, §3
# [4] = +10 μM BSO (MTC), 24 hr BSO, read-out: IC50 (μM) vs. A2780 +10 μM BSO (MTC)
# [5] = without BSO, 2 hr platinum exposure, MTT after 5 days, read-out: IC50 (μM) vs. A2780 Control (Without BSO)
# [6] = +10 μM BSO, read-out: IC50 (μM) vs. 2780CP +10 μM BSO
# [7] = +3 mM BSO (MTC), read-out: IC50 (μM) vs. 2780CP +3 mM BSO (MTC)
# [8] = without BSO, read-out: IC50 (μM) vs. 2780CP Control (Without BSO)
# [9] = IC50 2780CP with 10 μM BSO / IC50 A2780 without BSO
# [10] = IC50 2780CP with 3 mM BSO (MTC) / IC50 A2780 without BSO
# [11] = IC50 2780CP without BSO / IC50 A2780 without BSO
# [12] = BSO at sub-MTC, read-out: IC50 +BSO (MTC)
# [13] = absence of BSO, read-out: IC50 Control
SMILES,"IC50 [1, 4] [µM]",DMF vs. A2780 +10 μM BSO (MTC) [1],DMF vs. A2780 Control (Without BSO) [1],"IC50 [1, 5] [µM]","IC50 [2, 6] [µM]","IC50 [2, 7] [µM]",DMF vs. 2780CP +10 μM BSO [2],DMF vs. 2780CP +3 mM BSO (MTC) [2],DMF vs. 2780CP Control (Without BSO) [2],"IC50 [2, 8] [µM]","Resistance Factor vs. 2780CP +10 μM BSO [2, 9]","Resistance Factor vs. 2780CP +3 mM BSO (MTC) [2, 10]","Resistance Factor vs. 2780CP Control (Without BSO) [2, 11]",Resistance Factor vs. 2780CP +10 μM BSO [2],Resistance Factor vs. 2780CP +3 mM BSO (MTC) [2],Resistance Factor vs. 2780CP Control (Without BSO) [2],"IC50 [3, 12] [µM]","IC50 [3, 13] [µM]",DMF +BSO (MTC) ([3]; BSO at sub-MTC),DMF Control [3]
[Cl][Pt]1([Cl])([Cl])([Cl])[NH][C@@H]2CCCC[C@H]2[NH]1 (racemic) [Complex 13],4.57,1.86,1.00,8.48,34.9,23.5,1.28,1.91,1.00,44.8,–,–,–,–,–,–,–,–,–,–
[NH2][Pt]([NH2])([Cl])[Cl] [Complex 1],4.25,1.59,1.00,6.75,82,58.3,1.23,1.73,1.00,101,–,–,–,–,–,–,–,–,–,–
[Cl][Pt]1([Cl])[NH][C@@H]2CCCC[C@H]2[NH]1 [Complex 2],0.41,1.37,1.00,0.56,3.69,2.46,1.25,1.87,1.00,4.61,6.59,4.39,8.23,–,–,–,–,–,–,–
[NH2][Pt]([Cl])([Cl])[NH]C1CC1 [Complex 3],3.46,1.05,1.00,3.64,62.2,48.8,1.02,1.31,1.00,63.7,17.1,13.4,17.5,–,–,–,–,–,–,–
[NH2][Pt]([Cl])([Cl])[NH]C1CCC1 [Complex 4],0.77,1.34,1.00,1.03,16,15.8,1.04,1.05,1.00,16.6,15.5,15.3,16.1,–,–,–,–,–,–,–
"[NH2][Pt]([Cl])([Cl])[NH]C1CCCC1 [Complex 5, Ammine/cyclopentylamine-dichloro-platinum(II)]",0.66,1.11,1.00,0.73,14.5,9.07,1.05,1.68,1.00,15.2,19.9,12.4,20.8,–,–,–,–,–,–,–
[NH2][Pt]([Cl])([Cl])[NH]C1CCCCC1 [Complex 6],0.5,1.26,1.00,0.63,6.98,4.19,1.08,1.80,1.00,7.55,11.1,6.65,12.0,–,–,–,–,–,–,–
[NH2][Pt]([Cl])([Cl])[NH]C1CCCCCCC1 [Complex 8],0.61,1.26,1.00,0.77,5.97,2.35,1.24,3.15,1.00,7.41,7.75,3.05,9.62,–,–,–,–,–,–,–
[NH2][Pt]([Cl])([Cl])[N]1CCC1 [Complex 9],3.02,1.41,1.00,4.27,18.7,8.2,1.45,3.32,1.00,27.2,4.38,1.92,6.37,–,–,–,–,–,–,–
[NH2][Pt]([Cl])([Cl])[N]1CCCC1 [Complex 10],2.9,1.41,1.00,4.08,28.2,17.2,1.32,2.16,1.00,37.2,6.91,4.22,9.12,–,–,–,–,–,–,–
"N[C@@H]1CCCC[C@H]1N.[Cl][Pt+2]([Cl])([Cl])[Cl] [Complex 13, Tetraplatin, reference compound]",–,–,–,–,–,–,–,–,–,–,–,–,–,4.12,2.77,5.28,–,–,–,–
N[C@@H]1CCCC[C@H]1N.[OH][Pt+2]([OH])([Cl])[Cl] [Complex 14],1.17,1.07,1.00,1.25,15.5,9.54,1.02,1.66,1.00,15.8,12.4,7.63,12.6,–,–,–,–,–,–,–
[NH2][Pt]([Cl])([Cl])([Cl])([Cl])[NH]C1CCCCC1 [Complex 15],0.72,1.26,1.00,0.91,10.8,4.34,1.43,3.55,1.00,15.4,11.9,4.77,16.9,–,–,–,–,–,–,–
[NH2][Pt]([OH])([OH])([Cl])([Cl])[NH]C1CCCCC1 [Complex 16],3.07,1.16,1.00,3.55,19.6,8.92,1.22,2.68,1.00,23.9,5.52,2.51,6.73,–,–,–,–,–,–,–
[NH2][Pt]([OH])([OH])([Cl])([Cl])[N]1CCCCCC1 [Complex 18],–,–,–,–,–,–,–,–,–,–,–,–,–,–,–,–,14.2,140,9.86,1.00
CC(=O)[O][Pt]([NH2])([Cl])([Cl])([O]C(C)=O)[N]1CCCCCC1 [Complex 19],–,–,–,–,–,–,–,–,–,–,–,–,–,–,–,–,21.6,100,4.63,1.00
